Laboratory results reported in patent publication US4032625A, “Bone-seeking technetium-99m complex” (priority 1975, dated 1977).
Like-named read-outs stand apart in the source and are kept apart here.

Details: 2 Hrs

## [85Sr] [^85 Sr]
0.01 mg/kg AEDP
  % Dose in Whole Organ: Blood: 2.99 % Dose
  % Dose in Whole Organ: Kidneys: 0.329 % Dose
  % Dose in Whole Organ: Liver: 0.568 % Dose
  % Dose in Whole Organ: Marrow: 0.465 % Dose
  % Dose in Whole Organ: Muscle: 4.98 % Dose
  % Dose in Whole Organ: W. Femur: 3.22 % Dose
  % Dose in Whole Organ: W. Tibia: 2.71 % Dose
  % Dose/1% Body weight: Blood: 0.427 % Dose/1% Body weight
  % Dose/1% Body weight: Bone Ave: 10.33 % Dose/1% Body weight
  % Dose/1% Body weight: Femur: 10.38 % Dose/1% Body weight
  % Dose/1% Body weight: Kidneys: 0.567 % Dose/1% Body weight
  % Dose/1% Body weight: Liver: 0.177 % Dose/1% Body weight
  % Dose/1% Body weight: Marrow: 0.211 % Dose/1% Body weight
  % Dose/1% Body weight: Muscle: 0.116 % Dose/1% Body weight
  % Dose/1% Body weight: Pelvis: 10.66 % Dose/1% Body weight
  % Dose/1% Body weight: Spine: 8.98 % Dose/1% Body weight
  % Dose/1% Body weight: Tibia: 11.28 % Dose/1% Body weight
  % Dose: Urine: 20.97 % Dose
0.01 mg/kg EHDP
  % Dose in Whole Organ: Blood: 3.19 % Dose
  % Dose in Whole Organ: Kidneys: 0.43 % Dose
  % Dose in Whole Organ: Liver: 0.74 % Dose
  % Dose in Whole Organ: Marrow: 0.42 % Dose
  % Dose in Whole Organ: One Femur: 2.83 % Dose
  % Dose/1%-body weight: Blood: 0.456 % Dose/1%-body weight
  % Dose/1%-body weight: Femur: 9.70 % Dose/1%-body weight
  % Dose/1%-body weight: Kidney: 0.655 % Dose/1%-body weight
  % Dose/1%-body weight: Liver: 0.206 % Dose/1%-body weight
  % Dose/1%-body weight: Marrow: 0.192 % Dose/1%-body weight
  % Dose: Urine: 23.66 % Dose
0.01 mg/kg MDP
  % Dose in Whole Organ: Blood: 3.27 % Dose
  % Dose in Whole Organ: Kidneys: 0.34 % Dose
  % Dose in Whole Organ: Liver: 0.65 % Dose
  % Dose in Whole Organ: Marrow: 0.53 % Dose
  % Dose in Whole Organ: Muscle: 5.69 % Dose
  % Dose in Whole Organ: One Femur: 3.46 % Dose
  % Dose/1% Body weight: Blood: 0.47 % Dose/1% body weight
  % Dose/1% Body weight: Femur: 13.93 % Dose/1% body weight
  % Dose/1% Body weight: Kidneys: 0.54 % Dose/1% body weight
  % Dose/1% Body weight: Liver: 0.16 % Dose/1% body weight
  % Dose/1% Body weight: Marrow: 0.24 % Dose/1% body weight
  % Dose/1% Body weight: Muscle: 0.13 % Dose/1% body weight
  % Dose/1% Body weight: Pelvis: 13.55 % Dose/1% body weight
  % Dose/1% Body weight: Spine: 12.78 % Dose/1% body weight
  % Dose/1% Body weight: Tibia: 7.14 % Dose/1% body weight
  % Dose/1% body weight: Ave Bone: 11.85 % Dose/1% body weight
  % Dose: Urine: 10.3 % Dose
0.05 mg/kg AEDP
  % Dose in Whole Organ: Blood: 2.50 % Dose
  % Dose in Whole Organ: Kidneys: 0.353 % Dose
  % Dose in Whole Organ: Liver: 0.613 % Dose
  % Dose in Whole Organ: Marrow: 0.486 % Dose
  % Dose in Whole Organ: Muscle: 5.09 % Dose
  % Dose in Whole Organ: W. Femur: 3.51 % Dose
  % Dose in Whole Organ: W. Tibia: 3.15 % Dose
  % Dose/1% Body weight: Blood: 0.357 % Dose/1% Body weight
  % Dose/1% Body weight: Bone Ave: 12.34 % Dose/1% Body weight
  % Dose/1% Body weight: Femur: 12.62 % Dose/1% Body weight
  % Dose/1% Body weight: Kidneys: 0.551 % Dose/1% Body weight
  % Dose/1% Body weight: Liver: 0.134 % Dose/1% Body weight
  % Dose/1% Body weight: Marrow: 0.221 % Dose/1% Body weight
  % Dose/1% Body weight: Muscle: 0.118 % Dose/1% Body weight
  % Dose/1% Body weight: Pelvis: 11.44 % Dose/1% Body weight
  % Dose/1% Body weight: Spine: 11.60 % Dose/1% Body weight
  % Dose/1% Body weight: Tibia: 13.69 % Dose/1% Body weight
  % Dose: Urine: 11.95 % Dose
0.05 mg/kg EHDP
  % Dose in Whole Organ: Blood: 3.39 % Dose
  % Dose in Whole Organ: Kidneys: 0.46 % Dose
  % Dose in Whole Organ: Liver: 0.77 % Dose
  % Dose in Whole Organ: Marrow: 0.61 % Dose
  % Dose in Whole Organ: One Femur: 3.33 % Dose
  % Dose/1%-body weight: Blood: 0.485 % Dose/1%-body weight
  % Dose/1%-body weight: Femur: 11.51 % Dose/1%-body weight
  % Dose/1%-body weight: Kidney: 0.616 % Dose/1%-body weight
  % Dose/1%-body weight: Liver: 0.210 % Dose/1%-body weight
  % Dose/1%-body weight: Marrow: 0.291 % Dose/1%-body weight
  % Dose: Urine: 13.4 % Dose
0.05 mg/kg MDP
  % Dose in Whole Organ: Blood: 3.66 % Dose
  % Dose in Whole Organ: Kidneys: 0.46 % Dose
  % Dose in Whole Organ: Liver: 0.71 % Dose
  % Dose in Whole Organ: Marrow: 0.53 % Dose
  % Dose in Whole Organ: Muscle: 5.89 % Dose
  % Dose in Whole Organ: One Femur: 2.53 % Dose
  % Dose/1% Body weight: Blood: 0.52 % Dose/1% body weight
  % Dose/1% Body weight: Femur: 9.10 % Dose/1% body weight
  % Dose/1% Body weight: Kidneys: 0.9 % Dose/1% body weight
  % Dose/1% Body weight: Liver: 0.22 % Dose/1% body weight
  % Dose/1% Body weight: Marrow: 0.24 % Dose/1% body weight
  % Dose/1% Body weight: Muscle: 0.14 % Dose/1% body weight
  % Dose/1% Body weight: Pelvis: 8.33 % Dose/1% body weight
  % Dose/1% Body weight: Spine: 6.75 % Dose/1% body weight
  % Dose/1% Body weight: Tibia: 4.94 % Dose/1% body weight
  % Dose/1% body weight: Ave Bone: 7.29 % Dose/1% body weight
  % Dose: Urine: 23.16 % Dose
0.1 mg/kg AEDP
  % Dose in Whole Organ: Blood: 2.48 % Dose
  % Dose in Whole Organ: Kidneys: 0.324 % Dose
  % Dose in Whole Organ: Liver: 0.654 % Dose
  % Dose in Whole Organ: Marrow: 0.244 % Dose
  % Dose in Whole Organ: Muscle: 5.15 % Dose
  % Dose in Whole Organ: W. Femur: 3.27 % Dose
  % Dose in Whole Organ: W. Tibia: 2.99 % Dose
  % Dose/1% Body weight: Blood: 0.354 % Dose/1% Body weight
  % Dose/1% Body weight: Bone Ave: 10.48 % Dose/1% Body weight
  % Dose/1% Body weight: Femur: 10.97 % Dose/1% Body weight
  % Dose/1% Body weight: Kidneys: 0.441 % Dose/1% Body weight
  % Dose/1% Body weight: Liver: 0.182 % Dose/1% Body weight
  % Dose/1% Body weight: Marrow: 0.166 % Dose/1% Body weight
  % Dose/1% Body weight: Muscle: 0.136 % Dose/1% Body weight
  % Dose/1% Body weight: Pelvis: 8.66 % Dose/1% Body weight
  % Dose/1% Body weight: Spine: 10.56 % Dose/1% Body weight
  % Dose/1% Body weight: Tibia: 11.71 % Dose/1% Body weight
  % Dose: Urine: 12.1 % Dose
0.1 mg/kg EHDP
  % Dose in Whole Organ: Blood: 3.10 % Dose
  % Dose in Whole Organ: Kidneys: 0.30 % Dose
  % Dose in Whole Organ: Liver: 0.64 % Dose
  % Dose in Whole Organ: Marrow: 0.43 % Dose
  % Dose in Whole Organ: One Femur: 3.42 % Dose
  % Dose/1%-body weight: Blood: 0.443 % Dose/1%-body weight
  % Dose/1%-body weight: Femur: 10.9 % Dose/1%-body weight
  % Dose/1%-body weight: Kidney: 0.513 % Dose/1%-body weight
  % Dose/1%-body weight: Liver: 0.230 % Dose/1%-body weight
  % Dose/1%-body weight: Marrow: 0.195 % Dose/1%-body weight
  % Dose: Urine: 11.31 % Dose
0.1 mg/kg MDP
  % Dose in Whole Organ: Blood: 3.95 % Dose
  % Dose in Whole Organ: Kidneys: 0.66 % Dose
  % Dose in Whole Organ: Liver: 1.05 % Dose
  % Dose in Whole Organ: Marrow: 0.57 % Dose
  % Dose in Whole Organ: Muscle: 9.32 % Dose
  % Dose in Whole Organ: One Femur: 2.80 % Dose
  % Dose/1% Body weight: Blood: 0.56 % Dose/1% body weight
  % Dose/1% Body weight: Femur: 10.0 % Dose/1% body weight
  % Dose/1% Body weight: Kidneys: 1.00 % Dose/1% body weight
  % Dose/1% Body weight: Liver: 0.30 % Dose/1% body weight
  % Dose/1% Body weight: Marrow: 0.26 % Dose/1% body weight
  % Dose/1% Body weight: Muscle: 0.22 % Dose/1% body weight
  % Dose/1% Body weight: Pelvis: 12.2 % Dose/1% body weight
  % Dose/1% Body weight: Spine: 8.45 % Dose/1% body weight
  % Dose/1% Body weight: Tibia: 6.05 % Dose/1% body weight
  % Dose/1% body weight: Ave Bone: 9.17 % Dose/1% body weight
  % Dose: Urine: 15.4 % Dose
0.5 mg/kg AEDP
  % Dose in Whole Organ: Blood: 4.36 % Dose
  % Dose in Whole Organ: Kidneys: 0.384 % Dose
  % Dose in Whole Organ: Liver: 0.720 % Dose
  % Dose in Whole Organ: Marrow: 0.456 % Dose
  % Dose in Whole Organ: Muscle: 6.51 % Dose
  % Dose in Whole Organ: W. Femur: 2.75 % Dose
  % Dose in Whole Organ: W. Tibia: 2.42 % Dose
  % Dose/1% Body weight: Blood: 0.624 % Dose/1% Body weight
  % Dose/1% Body weight: Bone Ave: 10.78 % Dose/1% Body weight
  % Dose/1% Body weight: Femur: 10.43 % Dose/1% Body weight
  % Dose/1% Body weight: Kidneys: 0.924 % Dose/1% Body weight
  % Dose/1% Body weight: Liver: 0.270 % Dose/1% Body weight
  % Dose/1% Body weight: Marrow: 0.207 % Dose/1% Body weight
  % Dose/1% Body weight: Muscle: 0.151 % Dose/1% Body weight
  % Dose/1% Body weight: Pelvis: 11.42 % Dose/1% Body weight
  % Dose/1% Body weight: Spine: 9.87 % Dose/1% Body weight
  % Dose/1% Body weight: Tibia: 11.37 % Dose/1% Body weight
  % Dose: Urine: 10.47 % Dose
0.5 mg/kg EHDP
  % Dose in Whole Organ: Blood: 4.43 % Dose
  % Dose in Whole Organ: Kidneys: 0.48 % Dose
  % Dose in Whole Organ: Liver: 0.76 % Dose
  % Dose in Whole Organ: Marrow: 0.34 % Dose
  % Dose in Whole Organ: One Femur: 2.48 % Dose
  % Dose/1%-body weight: Blood: 0.633 % Dose/1%-body weight
  % Dose/1%-body weight: Femur: 9.213 % Dose/1%-body weight
  % Dose/1%-body weight: Kidney: 0.972 % Dose/1%-body weight
  % Dose/1%-body weight: Liver: 0.244 % Dose/1%-body weight
  % Dose/1%-body weight: Marrow: 0.152 % Dose/1%-body weight
  % Dose: Urine: 19.67 % Dose
0.5 mg/kg MDP
  % Dose in Whole Organ: Blood: 3.11 % Dose
  % Dose in Whole Organ: Kidneys: 0.45 % Dose
  % Dose in Whole Organ: Liver: 0.69 % Dose
  % Dose in Whole Organ: Marrow: 0.67 % Dose
  % Dose in Whole Organ: Muscle: 5.65 % Dose
  % Dose in Whole Organ: One Femur: 2.96 % Dose
  % Dose/1% Body weight: Blood: 0.45 % Dose/1% body weight
  % Dose/1% Body weight: Femur: 11.32 % Dose/1% body weight
  % Dose/1% Body weight: Kidneys: 0.69 % Dose/1% body weight
  % Dose/1% Body weight: Liver: 0.23 % Dose/1% body weight
  % Dose/1% Body weight: Marrow: 0.30 % Dose/1% body weight
  % Dose/1% Body weight: Muscle: 0.13 % Dose/1% body weight
  % Dose/1% Body weight: Pelvis: 8.68 % Dose/1% body weight
  % Dose/1% Body weight: Spine: 8.92 % Dose/1% body weight
  % Dose/1% Body weight: Tibia: 6.16 % Dose/1% body weight
  % Dose/1% body weight: Ave Bone: 8.77 % Dose/1% body weight
  % Dose: Urine: 15.16 % Dose
